From US20050026896A1, “Platinum(II) and platinum(IV) complexes and their use” (Faustus Forschungs Cie. Translational Cancer Research GmbH, priority 2001, published 2005)

Tested on: GMP as DNA constituent
Assay: Reactivity with GMP: adduct formation under physiological and patho-physiological conditions
Format: biochemical
Text: The reactivity of the compound cis-dichloro-bis(2-ethanolamine)platinum(II) was examined under physiological and patho-physiological conditions (FIG. 2). […] Chem. 39(4): 836-842 (2000); Choi, Sunhee; Mahalingaiah, Shruthi; Delaney, Sarah; Neale, Nathan R.; Masood, Syed “Substitution and Reduction of Platinum(IV) Complexes by a Nucleotide, Guanosine 5′-Monophosphate” Inorg. Chem. 38(8): 1800-1805 (1999); Chen, Yu; Guo, Zijian; Parkinson, John A.; Sadler, Peter J. “Kinetic control of reactions of a sterically hindered platinum picoline anticancer complex with guanosine 5′-monophosphate and glutathione” J. Chem. Soc., Dalton Trans.), 21: 3577-3586 (1998); Bloemink, Marieke J.; Perez, Janice M. J.; Heetebrij, Robert J.; Reedijk, Jan “The new anticancer drug [(2R)-aminomethylpyrrolidine](1,1-cyclobutanedicarboxylato)platinum(II) and its toxic S enantiomer do interact differently with nucleic acids” J. Biol. Inorg. Chem. 4(5): 554-567 (1999).
Similar to Example 8, the reactivity of the compound bis(2-ethanolatoamine-κ^2N,O)platinum(II) (see Example 8 for the synthesis) was examined. In this respect, the proportion of the nucleotide not modified by the active substance was measured.

| Structure (SMILES) | speed of reaction with the nucleotide (proportion of the nucleotide not modified by the active substance) (patho-physiological conditions (pH 6) compared to tissue free of disease (pH 7.4), FIG. 3) | selectivity of reaction, patho-physiological versus physiological conditions (FIG. 2, comparison of left and right diagram) | reactivity: reaction with the biological target (formation of adducts with GMP) (patho-physiological conditions (FIG. 2, left diagram)) | reactivity: reaction with the biological target (formation of adducts with GMP) (physiological conditions (FIG. 2, right diagram)) |
| --- | --- | --- | --- | --- |
| C1C[O][Pt]2([NH]1)[NH]CC[O]2 [(SP-4-2)-[bis(2-aminoethanolato)-κ^2N,O]platinum(II)] | significantly increased speed |  |  |  |
| OCC[NH][Pt]([Cl])([Cl])[NH]CCO [(SP-4-2)-dichloro[bis(2-hydroxyethylamine)]platinum(II)] |  | Selectivity is therefore present | rapid reaction | clearly runs slower |
